Like-named read-outs stand apart in the source and are kept apart here.
Molecular target: T1, F508delCFTR (Homo sapiens, UniProt P13569, DEL508-508)
T1 construct: expressed in transfected cells; host or cells: CFBE41o- human lung-derived epithelial cells (CFBE4lo-F508delCFTR-HRP), doxycycline-inducible
Assay: Cell Surface Expression-Horse Radish Peroxidase (CSE-HRP) Assay;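 on Maximum % activity (with co-corrector): co-corrector and positive control are both the same reference corrector at 2 µM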;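 on Maximum % activity (without co-corrector): percent of the 2 µM on-plate positive control corrector response above DMSO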
Type: cell-based
Conditions: for Maximum % activity (with co-corrector) / Emax: maximum at any tested concentration, normalized to on-plate positive control; for Emax: read-out: Maximum % activity (without co-corrector)

[1] = CSE-HRP, test compound without co-corrector, read-out: EC50 (without co-corrector)
[2] = CSE-HRP, with co-corrector (2 μM of 3-[(2R,4R)-4-({[1-(2,2-difluoro-1,3-benzodioxol-5-yl)cyclopropyl]carbonyl}amino)-7-methoxy-3,4-dihydro-2H-chromen-2-yl]benzoic acid), read-out: EC50 (with co-corrector)
[3] = CSE-HRP, with co-corrector (2 μM)
[4] = test compound without co-corrector
[5] = test compound without co-corrector, read-out: EC50 (without co-corrector)
[6] = with co-corrector (2 μM of 3-[(2R,4R)-4-({[1-(2,2-difluoro-1,3-benzodioxol-5-yl)cyclopropyl]carbonyl}amino)-7-methoxy-3,4-dihydro-2H-chromen-2-yl]benzoic acid)
[7] = with co-corrector (2 μM of 3-[(2R,4R)-4-({[1-(2,2-difluoro-1,3-benzodioxol-5-yl)cyclopropyl]carbonyl}amino)-7-methoxy-3,4-dihydro-2H-chromen-2-yl]benzoic acid), read-out: EC50 (with co-corrector)

T1 sequence (P13569 with tags, fused parts or gaps DEL508-508): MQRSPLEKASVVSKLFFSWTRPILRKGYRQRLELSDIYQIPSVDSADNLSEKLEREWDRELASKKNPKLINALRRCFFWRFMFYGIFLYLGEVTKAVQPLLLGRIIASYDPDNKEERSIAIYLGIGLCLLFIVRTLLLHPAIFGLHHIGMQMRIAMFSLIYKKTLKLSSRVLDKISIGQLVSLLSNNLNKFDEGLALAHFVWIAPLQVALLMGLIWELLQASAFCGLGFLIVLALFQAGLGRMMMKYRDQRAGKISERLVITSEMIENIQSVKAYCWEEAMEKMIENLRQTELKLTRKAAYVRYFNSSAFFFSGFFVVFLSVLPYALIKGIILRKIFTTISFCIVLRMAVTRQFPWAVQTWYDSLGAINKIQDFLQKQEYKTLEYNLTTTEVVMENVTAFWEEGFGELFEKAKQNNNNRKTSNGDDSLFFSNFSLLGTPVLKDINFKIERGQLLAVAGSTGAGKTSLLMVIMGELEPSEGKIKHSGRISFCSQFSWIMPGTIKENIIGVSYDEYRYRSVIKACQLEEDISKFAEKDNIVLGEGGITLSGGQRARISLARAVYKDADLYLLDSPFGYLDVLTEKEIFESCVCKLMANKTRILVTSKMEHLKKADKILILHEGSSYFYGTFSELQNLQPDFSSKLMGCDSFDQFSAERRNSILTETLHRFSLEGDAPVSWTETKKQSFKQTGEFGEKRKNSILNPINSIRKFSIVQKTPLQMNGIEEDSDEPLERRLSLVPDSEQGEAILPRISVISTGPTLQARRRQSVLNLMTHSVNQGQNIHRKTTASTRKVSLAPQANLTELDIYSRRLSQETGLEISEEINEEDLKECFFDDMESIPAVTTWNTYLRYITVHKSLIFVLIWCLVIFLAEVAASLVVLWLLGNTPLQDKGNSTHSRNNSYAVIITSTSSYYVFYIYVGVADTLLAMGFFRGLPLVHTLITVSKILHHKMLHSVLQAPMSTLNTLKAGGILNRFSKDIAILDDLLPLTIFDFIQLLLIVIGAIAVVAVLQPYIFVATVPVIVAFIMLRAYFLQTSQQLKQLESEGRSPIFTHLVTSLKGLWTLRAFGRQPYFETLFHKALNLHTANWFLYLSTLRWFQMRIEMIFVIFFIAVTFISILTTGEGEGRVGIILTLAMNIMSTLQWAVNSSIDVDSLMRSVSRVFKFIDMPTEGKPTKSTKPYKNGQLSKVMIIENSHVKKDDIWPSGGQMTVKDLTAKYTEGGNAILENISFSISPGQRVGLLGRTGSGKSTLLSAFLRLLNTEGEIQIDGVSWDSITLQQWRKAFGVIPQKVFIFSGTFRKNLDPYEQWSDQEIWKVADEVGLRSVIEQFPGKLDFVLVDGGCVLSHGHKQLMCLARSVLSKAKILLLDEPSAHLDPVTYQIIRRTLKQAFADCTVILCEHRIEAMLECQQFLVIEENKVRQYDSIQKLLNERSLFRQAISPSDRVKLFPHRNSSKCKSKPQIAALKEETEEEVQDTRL

Compound | EC50 [1] | EC50 [2] | Maximum % activity (with co-corrector) [3] | Emax (CSE-HRP, without co-corrector) | Emax [4] | EC50 [5] | Maximum % activity (with co-corrector) [6] | EC50 [7] | Maximum % activity (with co-corrector) (with co-corrector (2 μM)) | Emax (without co-corrector)
COc1cc(C(F)(F)F)ccc1CN[C@@H]1[C@@H](C(C)(C)C)[C@H](C(=O)O)N(C(=O)C2CCCCC2)[C@@H]1c1cccnc1N(C)C (racemic) [II-51] | 1000 to 10000 nM | 1000 to 10000 nM | +++ (≥350) | 100 to 200% | – | – | – | – | – | –
COc1cccc([C@@H]2[C@H](Nc3cc(C(F)(F)F)cc(C)n3)[C@@H](C(C)(C)C)[C@H](C(=O)O)N2C(=O)C2C3COCC32)n1 (mixture of isomers) [III-62] | – | – | – | – | < 100% | 1000 to 10000 nM | ++ (≥150 and <350) | 1000 to 10000 nM | – | –
COc1cc(C(F)(F)F)ccc1CN[C@H]1[C@H](C(C)(C)C)[C@@H](C(=O)O)N(C(=O)[C@H]2CCC[C@H](OC)C2)[C@H]1c1ccccc1 [II-571] | – | – | – | – | > 200% | 1000 to 10000 nM | +++ (≥350) | 1000 to 10000 nM | – | –
COc1ccccc1[C@@H]1[C@H](NCc2cc(C(F)(F)F)cnc2Cl)[C@@H](C(C)(C)C)[C@H](C(=O)O)N1C(=O)C1CCCCC1 (racemic) [II-16] | 1000 to 10000 nM | 1000 to 10000 nM | +++ (≥350) | < 100% | – | – | – | – | – | –
COc1ccc(C(F)(F)F)cc1CN[C@H]1[C@H](C(C)(C)C)[C@@H](C(=O)O)N(C(=O)C2CCCCC2)[C@H]1c1ccccc1F [II-260] | 1000 to 10000 nM | 1000 to 10000 nM | +++ (≥350) | 100 to 200% | – | – | – | – | – | –
COc1cccc([C@@H]2[C@H](NCc3cc(Cl)ccc3OC)[C@@H](C(C)(C)C)[C@H](C(=O)O)N2C(=O)C2CCCCC2)n1 (racemic) [II-19] | 1000 to 10000 nM | 1000 to 10000 nM | +++ (≥350) | 100 to 200% | – | – | – | – | – | –
COc1cc(C(F)(F)F)ccc1CN[C@H]1[C@H](C(C)(C)C)[C@@H](C(=O)O)N(C(=O)[C@@H]2CCCO2)[C@H]1c1cccnc1C1CC1 [II-587] | – | – | – | – | 100 to 200% | 1000 to 10000 nM | +++ (≥350) | 1000 to 10000 nM | – | –
CC(C)(C)[C@H]1[C@H](NCc2ccc3c(c2)OCCO3)[C@H](c2ccccc2)N(C(=O)C2CCCCC2)[C@@H]1C(=O)O [Example I-47] | – | – | – | – | – | > 10000 nM | – | 1000 to 10000 nM | ++ (≥150 and <350) | < 100%
CC(C)(C)[C@@H]1[C@@H](NCc2cc(C(F)(F)F)ccc2OCCO)[C@@H](c2ccccc2)N(C(=O)C2CCCCC2)[C@H]1C(=O)O (racemic) [III-66] | – | – | – | – | < 100% | > 10000 nM | ++ (≥150 and <350) | 1000 to 10000 nM | – | –
COc1ccc(C(C)(C)C)cc1CN[C@H]1[C@H](C(C)(C)C)[C@@H](C(=O)O)N(C(=O)C2CCCCC2)[C@H]1c1cccnc1OC [Example 17, (2S,3S,4S,5S)-3-tert-butyl-4-{[(5-tert-butyl-2-methoxyphenyl)methyl]amino}-1-(cyclohexanecarbonyl)-5-(2-methoxypyridin-3-yl)pyrrolidine-2-carboxylic acid] | – | – | – | – | – | 1000 to 10000 nM | – | < 1000 nM | +++ (≥350) | > 200%
COc1ncccc1CN[C@@H]1[C@@H](C(C)(C)C)[C@H](C(=O)O)N(C(=O)C2CCCCC2)[C@@H]1c1ccccc1 (racemic) [II-6] | 1000 to 10000 nM | 1000 to 10000 nM | +++ (≥350) | 100 to 200% | – | – | – | – | – | –
CC(C)(C)[C@@H]1[C@@H](NCc2ccccc2OC(F)(F)F)[C@@H](c2ccccc2)N(C(=O)C2CCCCC2)[C@H]1C(=O)O (racemic) [II-76] | 1000 to 10000 nM | 1000 to 10000 nM | +++ (≥350) | < 100% | – | – | – | – | – | –
COc1cc(C(F)(F)F)ccc1CN[C@@H]1[C@@H](C(C)(C)C)[C@H](C(=O)O)N(C(=O)C2CCCCC2)[C@@H]1c1ccccc1OC (stereo in doubt) [III-40] | – | – | – | – | 100 to 200% | 1000 to 10000 nM | +++ (≥350) | < 1000 nM | – | –
COc1ncc(C(F)(F)F)cc1CN[C@H]1[C@H](C(C)(C)C)[C@@H](C(=O)O)N(C(=O)C2CCC(F)(F)C2)[C@H]1c1ccccc1C(C)C (stereo partly shown) [II-589] | – | – | – | – | 100 to 200% | < 1000 nM | +++ (≥350) | < 1000 nM | – | –
COc1nc(C(C)(C)C)ccc1CN[C@H]1[C@H](C(C)(C)C)[C@@H](C(=O)O)N(C(=O)C2CCCCC2)[C@H]1c1ccccc1OC(F)F [II-528] | – | – | – | – | 100 to 200% | 1000 to 10000 nM | +++ (≥350) | 1000 to 10000 nM | – | –
COc1cc(C(F)(F)F)ccc1CN[C@H]1[C@H](C(C)(C)C)[C@@H](C(=O)O)N(C(=O)C2CCCO2)[C@H]1c1ccccc1 (mixture of isomers) [II-60] | 1000 to 10000 nM | 1000 to 10000 nM | +++ (≥350) | 100 to 200% | – | – | – | – | – | –
COc1ccc(C(C)(C)C)cc1CN[C@H]1[C@H](C(C)(C)C)[C@@H](C(=O)O)N(C(=O)[C@H]2OCC[C@H]2C(C)C)[C@H]1c1ccccc1 (relative stereo) [Example 23, (2S,3S,4S,5S)-3-tert-butyl-4-{[(5-tert-butyl-2-methoxyphenyl)methyl]amino}-5-phenyl-1-[(2S*,3S*)-3-(propan-2-yl)oxolane-2-carbonyl]pyrrolidine-2-carboxylic acid] | – | – | – | – | – | 1000 to 10000 nM | – | < 1000 nM | +++ (≥350) | > 200%
COc1cnc(C2CCCCC2)cc1CN[C@H]1[C@H](C(C)(C)C)[C@@H](C(=O)O)N(C(=O)C2CCCCC2)[C@H]1c1ccccc1 [II-404] | – | – | – | – | < 100% | 1000 to 10000 nM | +++ (≥350) | 1000 to 10000 nM | – | –
COc1cc(C(F)(F)F)ccc1CN[C@H]1[C@H](C(C)(C)C)[C@@H](C(=O)O)N(C(=O)C2CCCCC2)[C@H]1c1cccnc1N(C)C [Example I-44] | – | – | – | – | – | 1000 to 10000 nM | – | 1000 to 10000 nM | +++ (≥350) | 100 to 200%
COc1cc(OC(F)(F)F)ccc1CN[C@@H]1[C@@H](C(C)(C)C)[C@H](C(=O)O)N(C(=O)OC(C)C)[C@@H]1c1ccccc1 (racemic) [II-41] | 1000 to 10000 nM | 1000 to 10000 nM | +++ (≥350) | > 200% | – | – | – | – | – | –
CC(C)OC(=O)N1[C@H](C(=O)O)[C@@H](C(C)(C)C)[C@H](NCC2CCN(C(C)C)CC2)[C@@H]1c1ccccc1 [III-235] | – | – | – | – | < 100% | > 10000 nM | – | < 1000 nM | + (<150) | –
COc1ncc(C2CCC2)cc1CN[C@H]1[C@H](C(C)(C)C)[C@@H](C(=O)O)N(C(=O)[C@@H]2CCCO2)[C@H]1c1ccccc1C(F)F [II-597] | – | – | – | – | 100 to 200% | 1000 to 10000 nM | +++ (≥350) | 1000 to 10000 nM | – | –
COc1cc(Cl)ccc1CN[C@@H]1[C@@H](C(C)(C)C)[C@H](C(=O)O)N(C(=O)C2CCCCC2)[C@@H]1c1ccccc1 (racemic) [III-30] | – | – | – | – | > 200% | 1000 to 10000 nM | +++ (≥350) | 1000 to 10000 nM | – | –
COc1ccc(C(C)(C)C)cc1CN[C@H]1[C@H](C(C)(C)C)[C@@H](C(=O)O)N(C(=O)C(C)Oc2ccccc2F)[C@H]1c1ccccc1 (stereo partly shown) [II-324] | – | – | – | – | > 200% | 1000 to 10000 nM | +++ (≥350) | < 1000 nM | – | –
CC(C)(C)[C@@H]1[C@@H](Nc2nccc(C(F)(F)F)n2)[C@@H](c2ccccc2)N(C(=O)C2CCCCC2)[C@H]1C(=O)O (racemic) [Example I-5] | – | – | – | – | – | 1000 to 10000 nM | – | 1000 to 10000 nM | +++ (≥350) | < 100%
